Assay results taken from US8420657B2 (Novartis AG, priority 2008, dated 2013).

Tests used:
[1] = tested on: JAK2-dependent nuclear translocation of STAT5-GFP in U-2 OS osteosarcoma cells; test: STAT5 nuclear translocation assay (Cellomics), rhEpo stimulated U-2 OS STAT5-GFP cells; assay type: cell-based; details: Homo sapiens, U2OS; STAT5 translocation pathway
Outline: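 U-2 OS cells stably expressing STAT5a-GFP and EpoR pre-treated with compound (final 10 μM to 0.003 μM, 0.1% DMSO) for 30 min at 37° C., then stimulated 1 h with 5 U/ml rhEpo. Nuclear-cytoplasmic GFP differential quantified by automated imaging (≥1000 cells/well, Hoechst nuclear mask). IC50 from % translocation normalized to untreated and DMSO-stimulated controls.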

GST-JAK2(808-1132) = molecular target: T1, GST-JAK2(808-1132) (Homo sapiens, UniProt O60674); test: JAK2 kinase assay (Caliper mobility shift, LabChip 3000); assay type: biochemical
T1 construct: GST-JAK2(808-1132); purchased Invitrogen (Carlsbad, USA) #4288
T1 sequence (O60674 808-1132): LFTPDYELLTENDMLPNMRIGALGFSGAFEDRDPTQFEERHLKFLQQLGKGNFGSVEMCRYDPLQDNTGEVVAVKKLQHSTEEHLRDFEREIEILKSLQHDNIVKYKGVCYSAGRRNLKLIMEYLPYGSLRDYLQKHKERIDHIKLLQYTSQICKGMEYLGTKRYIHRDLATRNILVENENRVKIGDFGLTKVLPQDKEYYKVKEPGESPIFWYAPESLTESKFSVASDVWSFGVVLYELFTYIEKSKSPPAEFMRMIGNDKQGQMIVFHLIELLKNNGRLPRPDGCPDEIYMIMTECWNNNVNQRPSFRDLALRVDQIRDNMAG
Outline: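 Recombinant GST-JAK2(808-1132) kinase domain with FITC-labelled JAK3tide peptide substrate and ATP; 60 min at 30 °C, EDTA stop. Substrate/product ratio read by microfluidic mobility shift; compounds at 8 final concentrations, 10 to 0.003 μM.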

Structure (SMILES)	IC50 [1] [nM]	IC50 (GST-JAK2(808-1132)) [nM]
CN1CCN(c2ccc(Nc3ncc4ccn(-c5cc(F)c(CN6CCOCC6)c(F)c5)c4n3)nc2)CC1 [Example 377, [7-(3,5-Difluoro-4-morpholin-4-ylmethyl-phenyl)-7H-pyrrolo[2,3-d]pyrimidin-2-yl]-[5-(4-methyl-piperazin-1-yl)-pyridin-2-yl]-amine]	> 2600	49
Fc1cc(-n2ccc3cnc(Nc4ccc(Cl)c(CN5CCNCC5)c4)nc32)cc(F)c1CN1CCOCC1 [Example 401, (4-Chloro-3-piperazin-1-ylmethyl-phenyl)-[7-(3,5-difluoro-4-morpholin-4-ylmethyl-phenyl)-7H-pyrrolo[2,3-d]pyrimidin-2-yl]-amine]	138	7
CN1CCN(Cc2cc(Nc3ncc4ccn(-c5cc(F)c(CN6CCOCC6)c(F)c5)c4n3)ccn2)CC1 [Example 384, [7-(3,5-Difluoro-4-morpholin-4-ylmethyl-phenyl)-7H-pyrrolo[2,3-d]pyrimidin-2-yl]-[2-(4-methyl-piperazin-1-ylmethyl)-pyridin-4-yl]-amine]	12	≤ 3
CC(C)(C)NS(=O)(=O)c1ccc(-n2ccc3cnc(Nc4ccc(OCCN5CCCC5)cc4)nc32)cc1 [Example 363, N-tert-Butyl-4-{2-[4-(2-pyrrolidin-1-yl-ethoxy)-phenylamino]-pyrrolo[2,3-d]pyrimidin-7-yl}-benzenesulfonamide]	11	3.2
O=C(c1ccc(-n2ccc3cnc(Nc4ccc(CC5CCNCC5)cc4)nc32)cc1F)N1CCOCC1 [Example 381, {2-Fluoro-4-[2-(4-piperidin-4-ylmethyl-phenylamino)-pyrrolo[2,3-d]pyrimidin-7-yl]-phenyl}-morpholin-4-yl-methanone]	43	≤ 3
C[C@@H]1CN[C@@H](C)CN1c1ccc(Nc2ncc3ccn(-c4ccc(S(=O)(=O)NC(C)(C)C)cc4)c3n2)cn1 (racemic) [Example 356, N-tert-Butyl-4-{2-[6-((2R,5S)-2,5-dimethyl-piperazin-1-yl)-pyridin-3-ylamino]-pyrrolo[2,3-d]pyrimidin-7-yl}-benzenesulfonamide]	5.9	3.2
Cc1ccc(Nc2ncc3ccn(-c4cc(F)c(CN5CCOCC5)c(F)c4)c3n2)cc1CN1CCNCC1=O [Example 399, 1-{5-[7-(3,5-Difluoro-4-morpholin-4-ylmethyl-phenyl)-7H-pyrrolo[2,3-d]pyrimidin-2-ylamino]-2-methyl-benzyl}-piperazin-2-one]	6.6	≤ 3
Fc1cc(-n2ccc3cnc(Nc4ccnc(OCC5CCNCC5)c4)nc32)cc(F)c1CN1CCOCC1 [Example 392, [7-(3,5-Difluoro-4-morpholin-4-ylmethyl-phenyl)-7H-pyrrolo[2,3-d]pyrimidin-2-yl]-[2-(piperidin-4-ylmethoxy)-pyridin-4-yl]-amine]	68	≤ 3
CN1CCN(Cc2cc(Nc3ncc4ccn(-c5cc(F)c(CN6CCOCC6)c(F)c5)c4n3)ccn2)CC1=O [Example 397, 4-{4-[7-(3,5-Difluoro-4-morpholin-4-ylmethyl-phenyl)-7H-pyrrolo[2,3-d]pyrimidin-2-ylamino]-pyridin-2-ylmethyl}-1-methyl-piperazin-2-one]	13	≤ 3
Cc1ccc(Nc2ncc3ccn(-c4ccc(S(=O)(=O)NC(C)(C)C)cc4)c3n2)cc1CN1CCN(C)CC1 [Example 353, N-tert-Butyl-4-{2-[4-methyl-3-(4-methyl-piperazin-1-ylmethyl)-phenylamino]-pyrrolo[2,3-d]pyrimidin-7-yl}-benzenesulfonamide]	17	4.9
Cc1ccc(Nc2ncc3ccn(-c4cc(F)c(CN5CCOCC5)c(F)c4)c3n2)cc1Cn1ccnc1 [Example 412, [7-(3,5-Difluoro-4-morpholin-4-ylmethyl-phenyl)-7H-pyrrolo[2,3-d]pyrimidin-2-yl]-(3-imidazol-1-ylmethyl-4-methyl-phenyl)-amine]	26.5	≤ 3
Cc1ccc(Nc2ncc3ccn(-c4cc(F)c(CN5CCOCC5)c(F)c4)c3n2)cc1CN1CC(O)C1 [Example 394, 1-{5-[7-(3,5-Difluoro-4-morpholin-4-ylmethyl-phenyl)-7H-pyrrolo[2,3-d]pyrimidin-2-ylamino]-2-methyl-benzyl}-azetidin-3-ol]	1.6	≤ 3

Other lines, results leading:

IC50 [1] [nM]	IC50 (GST-JAK2(808-1132)) [nM]	Structure (SMILES)
83	≤ 3	O=C1CNCCN1Cc1ccc(Nc2ncc3ccn(-c4cc(F)c(CN5CCOCC5)c(F)c4)c3n2)cc1 [Example 498, 1-{4-[7-(3,5-Difluoro-4-morpholin-4-ylmethyl-phenyl)-7H-pyrrolo[2,3-d]pyrimidin-2-ylamino]-benzyl}-piperazin-2-one]
24	3.8	Cc1ccc(Nc2ncc3ccn(-c4cc(F)c(CN5CCOCC5)c(F)c4)c3n2)cc1C(=O)N1CCN(C)CC1 [Example 451, {5-[7-(3,5-Difluoro-4-morpholin-4-ylmethyl-phenyl)-7H-pyrrolo[2,3-d]pyrimidin-2-ylamino]-2-methyl-phenyl}-(4-methyl-piperazin-1-yl)-methanone]
5.9	≤ 3	Cc1ccc(Nc2ncc3ccn(-c4cc(F)c(CN5CCS(=O)(=O)CC5)c(F)c4)c3n2)cc1CN1CC(O)C1 [Example 423, 1-(5-{7-[4-(1,1-Dioxido-thiomorpholin-4-ylmethyl)-3,5-difluoro-phenyl]-7H-pyrrolo[2,3-d]pyrimidin-2-ylamino}-2-methyl-benzyl)-azetidin-3-ol]
5.3	≤ 3	Fc1cc(-n2ccc3cnc(Nc4ccc([C@@H]5CNCCN5)cc4)nc32)cc(F)c1CN1CCOCC1 [Example 475, [7-(3,5-Difluoro-4-morpholin-4-ylmethyl-phenyl)-7H-pyrrolo[2,3-d]pyrimidin-2-yl]-((R)-4-piperazin-2-yl-phenyl)-amine]
3.6	≤ 3	C[C@@H]1CN(c2ncc(Nc3ncc4ccn(-c5cc(F)c(CN6CCS(=O)(=O)CC6)c(F)c5)c4n3)cc2Cl)C[C@H](C)N1 [Example 430, [5-Chloro-6-(cis-3,5-dimethyl-piperazin-1-yl)-pyridin-3-yl]-{7-[4-(1,1-dioxido-thiomorpholin-4-ylmethyl)-3,5-difluoro-phenyl]-7H-pyrrolo[2,3-d]pyrimidin-2-yl}-amine]
0.4	≤ 3	Cc1cc(Nc2ncc3ccn(-c4cc(F)c(CN5CCS(=O)(=O)CC5)c(F)c4)c3n2)cc(C)c1OCCN1CCOCC1 [Example 432, [3,5-Dimethyl-4-(2-morpholin-4-yl-ethoxy)-phenyl]-{7-[4-(1,1-dioxido-thiomorpholin-4-ylmethyl)-3,5-difluoro-phenyl]-7H-pyrrolo[2,3-d]pyrimidin-2-yl}-amine]
6.9	≤ 3	Cc1ccc(Nc2ncc3ccn(-c4cc(F)c(CN5CCOCC5)c(F)c4)c3n2)cc1CN1CCN(C)CC1=O [Example 415, 1-{5-[7-(3,5-Difluoro-4-morpholin-4-ylmethyl-phenyl)-7H-pyrrolo[2,3-d]pyrimidin-2-ylamino]-2-methyl-benzyl}-4-methyl-piperazin-2-one]
41	≤ 3	Cc1cc(Nc2ncc3ccn(-c4cc(F)c(CN5CCS(=O)(=O)CC5)c(F)c4)c3n2)cnc1N1C[C@@H](C)N[C@@H](C)C1 [Example 429]
51	≤ 3	C[C@@H]1CN(Cc2ccc(Nc3ncc4ccn(-c5cc(F)c(CN6CCCC6=O)c(F)c5)c4n3)cc2)C[C@H](C)N1 [Example 462, 1-(4-{2-[4-(cis-3,5-Dimethyl-piperazin-1-ylmethyl)-phenylamino]-pyrrolo[2,3-d]pyrimidin-7-yl}-2,6-difluoro-benzyl)-pyrrolidin-2-one]
79.5	6.2	Cc1ccc(Nc2ncc3ccn(-c4cc(F)c(CN5CCOCC5)c(F)c4)c3n2)cc1C(=O)N1C[C@@H](C)N[C@@H](C)C1 [Example 452, {5-[7-(3,5-Difluoro-4-morpholin-4-ylmethyl-phenyl)-7H-pyrrolo[2,3-d]pyrimidin-2-ylamino]-2-methyl-phenyl}-(cis-3,5-dimethyl-piperazin-1-yl)-methanone]
394	≤ 3	CN1CCN(Cc2cc(Nc3ncc4ccn(-c5cc(F)c(CN6CCOCC6)c(F)c5)c4n3)ccc2Cl)CC1 [Example 494, [4-Chloro-3-(4-methyl-piperazin-1-yl methyl)-phenyl]-[7-(3,5-difluoro-4-morpholin-4-ylmethyl-phenyl)-7H-pyrrolo[2,3-d]pyrimidin-2-yl]-amine]
55.5	2.2	CC1(C)NCCN(c2ccc(Nc3ncc4ccn(-c5cc(F)c(CN6CCOCC6)c(F)c5)c4n3)cn2)C1=O [Example 492, 1-{5-[7-(3,5-Difluoro-4-morpholin-4-ylmethyl-phenyl)-7H-pyrrolo[2,3-d]pyrimidin-2-ylamino]-pyridin-2-yl}-3,3-dimethyl-piperazin-2-one]
12	0.7	C[C@@H]1CN(c2ncc(Nc3ncc4ccn(-c5cc(F)c(CN6CCOCC6)c(F)c5)c4n3)cc2Cl)C[C@H](C)N1 [Example 489, [5-Chloro-6-(cis-3,5-dimethyl-piperazin-1-yl)-pyridin-3-yl]-[7-(3,5-difluoro-4-morpholin-4-ylmethyl-phenyl)-7H-pyrrolo[2,3-d]pyrimidin-2-yl]-amine]
150	≤ 3	COC1CN(Cc2c(F)cc(-n3ccc4cnc(Nc5ccc(C)c(CN6CCNCC6)c5)nc43)cc2F)C1 [Example 482, {7-[3,5-Difluoro-4-(3-methoxy-azetidin-1-ylmethyl)-phenyl]-7H-pyrrolo[2,3-d]pyrimidin-2-yl}-(4-methyl-3-piperazin-1-ylmethyl-phenyl)-amine]
